According to ChEMBL document CHEMBL4308841, “Synthesis, in vitro antiproliferative activity, and kinase inhibitory effects of pyrazole-containing diarylureas and diarylamides” (Eur J Med Chem, 2018):

Experiments:
NCI-H522 = test: Growth inhibition of human NCI-H522 cells assessed as cell growth at 10 uM incubated for 48 hrs by sulforhodamine B assay relative to control; type: functional; conditions: NCI-H522, 48 h, read-out: Activity
NCI-H460 = test: Growth inhibition of human NCI-H460 cells incubated for 48 hrs by sulforhodamine B assay; type: functional, cell-based; conditions: NCI-H460, 48 h
SNB-19 = test: Growth inhibition of human SNB19 cells incubated for 48 hrs by sulforhodamine B assay; type: functional, cell-based; conditions: SNB-19, 48 h
OVCAR-3 = test: Growth inhibition of human OVCAR3 cells incubated for 48 hrs by sulforhodamine B assay; type: functional, cell-based; conditions: OVCAR-3, 48 h
OVCAR-4 = test: Growth inhibition of human OVCAR4 cells incubated for 48 hrs by sulforhodamine B assay; type: functional, cell-based; conditions: OVCAR-4, 48 h
SK-OV-3 = test: Growth inhibition of human SKOV3 cells incubated for 48 hrs by sulforhodamine B assay; type: functional, cell-based; conditions: SK-OV-3, 48 h
RXF 393 = test: Growth inhibition of human RXF393 cells incubated for 48 hrs by sulforhodamine B assay; type: functional, cell-based; conditions: RXF 393, 48 h
DU-145 [1] = test: Growth inhibition of human DU145 cells incubated for 48 hrs by sulforhodamine B assay; type: functional, cell-based; conditions: DU-145, 48 h
KM12 [2] = test: Growth inhibition of human KM12 cells assessed as cell growth at 0.01 uM incubated for 48 hrs by sulforhodamine B assay relative to control; type: functional; conditions: KM12, 48 h, read-out: Activity
SW-620 = test: Growth inhibition of human SW620 cells assessed as cell growth at 0.01 uM incubated for 48 hrs by sulforhodamine B assay relative to control; type: functional; conditions: SW-620, 48 h, read-out: Activity
SF-268 = test: Growth inhibition of human SF268 cells assessed as cell growth at 0.01 uM incubated for 48 hrs by sulforhodamine B assay relative to control; type: functional; conditions: SF-268, 48 h, read-out: Activity
SF-295 = test: Growth inhibition of human SF295 cells assessed as cell growth at 0.01 uM incubated for 48 hrs by sulforhodamine B assay relative to control; type: functional; conditions: SF-295, 48 h, read-out: Activity
M14 = test: Growth inhibition of human M14 cells assessed as cell growth at 0.01 uM incubated for 48 hrs by sulforhodamine B assay relative to control; type: functional; conditions: M14, 48 h, read-out: Activity
K562 = test: Growth inhibition of human K562 cells assessed as cell growth at 0.1 uM incubated for 48 hrs by sulforhodamine B assay relative to control; type: functional; conditions: K562, 48 h, read-out: Activity
KM12 [3] = test: Growth inhibition of human KM12 cells assessed as cell growth at 0.1 uM incubated for 48 hrs by sulforhodamine B assay relative to control; type: functional; conditions: KM12, 48 h, read-out: Activity
SF-539 = test: Growth inhibition of human SF539 cells assessed as cell growth at 0.1 uM incubated for 48 hrs by sulforhodamine B assay relative to control; type: functional; conditions: SF-539, 48 h, read-out: Activity
SNB-75 = test: Growth inhibition of human SNB75 cells assessed as cell growth at 0.1 uM incubated for 48 hrs by sulforhodamine B assay relative to control; type: functional; conditions: SNB-75, 48 h, read-out: Activity
OVCAR-8 = test: Growth inhibition of human OVCAR8 cells assessed as cell growth at 0.1 uM incubated for 48 hrs by sulforhodamine B assay relative to control; type: functional; conditions: OVCAR-8, 48 h, read-out: Activity
DU-145 [4] = test: Growth inhibition of human DU145 cells assessed as cell growth at 0.1 uM incubated for 48 hrs by sulforhodamine B assay relative to control; type: functional; conditions: DU-145, 48 h, read-out: Activity
MDA-MB-468 = test: Growth inhibition of human MDA-MB-468 cells assessed as cell growth at 0.1 uM incubated for 48 hrs by sulforhodamine B assay relative to control; type: functional; conditions: MDA-MB-468, 48 h, read-out: Activity
NCI-H23 = test: Growth inhibition of human NCI-H23 cells assessed as cell growth at 1 uM incubated for 48 hrs by sulforhodamine B assay relative to control; type: functional; conditions: NCI-H23, 48 h, read-out: Activity
COLO 205 = test: Growth inhibition of human COLO205 cells assessed as cell growth at 1 uM incubated for 48 hrs by sulforhodamine B assay relative to control; type: functional; conditions: COLO 205, 48 h, read-out: Activity
HT-29 = test: Growth inhibition of human HT-29 cells assessed as cell growth at 1 uM incubated for 48 hrs by sulforhodamine B assay relative to control; type: functional; conditions: HT-29, 48 h, read-out: Activity
PC-3 = test: Growth inhibition of human PC3 cells assessed as cell growth at 1 uM incubated for 48 hrs by sulforhodamine B assay relative to control; type: functional; conditions: PC-3, 48 h, read-out: Activity
BT-549 = test: Growth inhibition of human BT549 cells assessed as cell growth at 1 uM incubated for 48 hrs by sulforhodamine B assay relative to control; type: functional; conditions: BT-549, 48 h, read-out: Activity
RPMI-8226 = test: Growth inhibition of human RPMI8226 cells assessed as cell growth at 100 uM incubated for 48 hrs by sulforhodamine B assay relative to control; type: functional; conditions: RPMI-8226, 48 h, read-out: Activity
SK-MEL-28 = test: Growth inhibition of human SK-MEL-28 cells assessed as cell growth at 100 uM incubated for 48 hrs by sulforhodamine B assay relative to control; type: functional; conditions: SK-MEL-28, 48 h, read-out: Activity
CAKI-1 = test: Growth inhibition of human Caki1 cells assessed as cell growth at 100 uM incubated for 48 hrs by sulforhodamine B assay relative to control; type: functional; conditions: CAKI-1, 48 h, read-out: Activity
[5] = read-out: LC50 (the source's name)
[6] = read-out: pLC50 (the source's name) (converted)

## O=C(Nc1cccc(-n2cc(-c3ccncc3)c(-c3cc(O)cc(Cl)c3)n2)c1)c1cc(C(F)(F)F)cc(C(F)(F)F)c1
NCI-H522
  growth at 10 µM: 17.8%
NCI-H460; read-out: GI50
  GI50: 3.04 µM
NCI-H460; [5]
  CC50: > 100 µM
NCI-H460; read-out: TGI
  TGI: > 100 µM
NCI-H460; read-out: pGI50 (converted)
  GI50: 3.02 µM
NCI-H460; [6]
  CC50: > 100 µM
NCI-H460; read-out: pTGI (converted)
  TGI: > 100 µM
SNB-19; read-out: GI50
  GI50: 7.03 µM
SNB-19; [5]
  CC50: > 100 µM
SNB-19; read-out: TGI
  TGI: > 100 µM
SNB-19; read-out: pGI50 (converted)
  GI50: 7.08 µM
SNB-19; [6]
  CC50: > 100 µM
SNB-19; read-out: pTGI (converted)
  TGI: > 100 µM
OVCAR-3
  IC50: 3.28 µM
OVCAR-3; read-out: GI50
  GI50: 3.28 µM
OVCAR-3; [5]
  CC50: > 100 µM
OVCAR-3; read-out: TGI
  TGI: 25.7 µM
OVCAR-3; read-out: pGI50 (converted)
  GI50: 3.31 µM
OVCAR-3; [6]
  CC50: > 100 µM
OVCAR-3; read-out: pTGI (converted)
  TGI: 10.2 µM
OVCAR-4; read-out: GI50
  GI50: 8.53 µM
OVCAR-4; [5]
  CC50: > 100 µM
OVCAR-4; read-out: TGI
  TGI: > 100 µM
OVCAR-4; read-out: pGI50 (converted)
  GI50: 8.51 µM
OVCAR-4; [6]
  CC50: > 100 µM
OVCAR-4; read-out: pTGI (converted)
  TGI: > 100 µM
SK-OV-3; read-out: GI50
  GI50: 1.08 µM
SK-OV-3; [5]
  CC50: > 100 µM
SK-OV-3; read-out: TGI
  TGI: > 100 µM
SK-OV-3; read-out: pGI50 (converted)
  GI50: 10.7 µM
SK-OV-3; [6]
  CC50: > 100 µM
SK-OV-3; read-out: pTGI (converted)
  TGI: > 100 µM
RXF 393
  LC50: 24.5 µM
RXF 393; read-out: GI50
  GI50: 1.59 µM
RXF 393; read-out: TGI
  TGI: 43.6 µM
RXF 393; read-out: pGI50 (converted)
  GI50: 1.7 µM
RXF 393; read-out: pTGI (converted)
  TGI: 4.37 µM
DU-145 [1]; read-out: GI50
  GI50: 5.1 µM
DU-145 [1]; [5]
  CC50: > 100 µM
DU-145 [1]; read-out: TGI
  TGI: > 100 µM
DU-145 [1]; read-out: pGI50 (converted)
  GI50: 5.25 µM
DU-145 [1]; [6]
  CC50: > 100 µM
DU-145 [1]; read-out: pTGI (converted)
  TGI: > 100 µM
KM12 [2]
  growth at 0.01 µM: 96%
SW-620
  growth at 0.01 µM: 99%
SF-268
  growth at 0.01 µM: 92%
SF-295
  growth at 0.01 µM: 92%
M14
  growth at 0.01 µM: 100%
K562
  growth at 0.1 µM: 89%
KM12 [3]
  growth at 0.1 µM: 97%
SF-539
  growth at 0.1 µM: 91%
SNB-75
  growth at 0.1 µM: 87%
OVCAR-8
  growth at 0.1 µM: 100%
DU-145 [4]
  growth at 0.1 µM: 99%
MDA-MB-468
  growth at 0.1 µM: 95%
NCI-H23
  growth at 1 µM: 98%
COLO 205
  growth at 1 µM: 97%
HT-29
  growth at 1 µM: 79%
PC-3
  growth at 1 µM: 78%
BT-549
  growth at 1 µM: 101%
RPMI-8226
  growth at 100 µM: -4%
SK-MEL-28
  growth at 100 µM: -2%
CAKI-1
  growth at 100 µM: 7%
